Among the data in PubChem BioAssay (NCI) are GI50 and TGI values, retold here.

Where “and” joins values, the source holds several entries; their conditions need not be identical. Equal values may be shown once.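 1) Cells in 96-well plates. 2) Compound, 48 h, 5 concentrations. 3) Linear interpolation between surrounding doses. 4) Unreached endpoint = highest concentration. The concentration for 50% growth inhibition is given as GI50. TGI denotes the concentration required for complete inhibition of growth.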

Common to all, as to experiment: DTP human tumour cell line panel, 48 h
The test system of test [1] is A498 renal.
In test [2] the test system is A549 NSCLC.
Test [3] relates to COLO 205 colon.
The subject of test [4] is HCT-116 colon.
For test [5], the system named is HL-60(TB) leukemia.
Test [6] has as its system IGROV1 ovarian.
Test [7] deals with LOX IMVI melanoma.
The test system of test [8] is SK-MEL-28 melanoma.
Test [9] relates to SN12C renal.
In test [10] the test system is UO-31 renal.

Take `CCN1C(=O)N(c2ccccc2)C2NC(=S)N(/N=C/C=C/c3ccccc3OC)C21` (stereo not given): the GI50 is 0.0311 µM in [1]; 0.121 µM in test [2]; 0.21 µM in test [3]; 0.105 µM in test [4]; 0.0756 µM in [5]; 0.136 µM in test [6]. Moreover, the concentration for 50% growth inhibition (GI50) in [7] was 0.109 µM; in test [8], 4.73 µM; in [9] it was 0.139 µM; in test [10], 0.486 µM. The TGI in test [1] is 0.653 µM; in [2], over 100 µM; in test [3], 0.487 µM; in test [4], over 32.7 µM; in test [5], 0.181 µM; in test [6] it was 10.8 µM. The TGI was over 69.5 µM in test [7], over 100 µM in test [8], over 42.2 µM in test [9] and over 100 µM in [10].
Consider `COc1cccc(C(=O)NC(c2ccc(C)cc2)c2cc(Cl)c3cccnc3c2O)c1` (stereo not given), for which the GI50 is 1.28 µM in test [1]; 0.473 µM in test [2]; 0.387 µM in test [3]; 0.495 µM in [4]; 0.427 µM in test [5]; 0.5 µM in [6]. Moreover, the GI50 in test [7] is 0.563 µM; in test [8], 0.743 µM; in [9], 0.661 µM; in [10], 0.362 µM. Besides, the concentration for total growth inhibition (TGI) turned out to be 11.6 µM in test [1]; 11.2 µM in [2]; 1.86 µM in test [3]; 14.4 µM in [4]; 2.84 µM in test [5]; 12.4 µM in test [6]. Also, the TGI in test [7] came out at 11.6 µM; in test [8] it was 17.1 µM; in test [9], 13.2 µM; in test [10] it was 10.8 µM.
For `N#Cc1c[nH]n2c(N=Nc3ccc(Cl)cc3)c(O)nc12`, the GI50 in [1] was 44.2 µM; in test [2], 31.9 µM; in test [3] it was 29 µM; in test [4], 92.8 µM; in [5], over 100 µM; in [6] it was 50.5 µM. The GI50 in test [7] is 28.8 µM; in test [8], 44.4 µM; in [9] it was 24.1 µM; in [10] it was 32.3 µM. Moreover, the TGI in test [1] was 96.3 µM; in [2], over 100 µM; in test [3], over 100 µM; in test [4] it was over 100 µM; in test [5], over 100 µM; in [6], over 100 µM. Further, the TGI was over 100 µM in test [7], over 100 µM in test [8], 57.3 µM in [9] and over 100 µM in test [10].
Consider `CC1=C2C(=C[C@@](C)(CO)[C@@H]2O)C(=O)[C@](C)(O)C12CC2`, for which the TGI in test [1] was 0.0288 µM; in [2], 0.0885 µM and 0.2 µM; in [3], 0.0218 µM; in test [4], 0.104 µM and 0.135 µM; in test [5], 0.0327 µM; in test [6], 0.0583 µM. In addition, the TGI in [7] is 0.0376 µM; in [8] it was 0.0339 µM and 0.0146 µM; in test [9], 0.112 µM and 0.119 µM; in test [10], 0.0422 µM.
As to `CCn1c(-c2nonc2N)nc2c(C#CC(C)(C)O)nc(OC[C@@H](N)c3ccccc3)cc21`, the GI50 in [1] is 2.2 µM; in test [2] it was 4.36 µM; in test [3], 4.68 µM; in test [4] it was 4.13 µM; in test [5] it was 5.23 µM; in [6] it was 5.04 µM. For the same compound, the GI50 in test [7] was 4.2 µM; in test [8], 4.85 µM; in [9] it was 3.96 µM; in [10], 5.08 µM. Also, the TGI in test [1] is 12.4 µM; in test [2], 9.18 µM; in test [3] it was 8.31 µM; in test [4] it was 7.63 µM; in test [5], 10.3 µM; in [6], 10.4 µM. In addition, the TGI in [7] stood at 8.82 µM; in test [8] it was 8.47 µM; in test [9] it was 7.66 µM; in test [10], 9.4 µM.

Broadly, the GI50 is the concentration that inhibits growth by half. The term TGI denotes the concentration at which net growth stops. Read a low TGI as greater sensitivity of the cells.
